# Measured values as given in US9376425B2, “Heterocyclic compounds as MDM2 inhibitors for the treatment of cancer” (AMGEN INC., priority 2011, dated 2016).
# What was measured:
# [1] = target: T1, human MDM2 (GST-hMDM2 aa 1-188), interaction with biotinylated-p53 (aa 1-83) (Homo sapiens, UniProt Q00987); assay: Homogenous Time-Resolved Fluorescence Assay (HTRF1 assay), inhibition of HDM2-p53 interaction; type: binding; settings: 2.5 nM GST-hMDM2, 5 nM biotinylated-p53, 200 mM KF
# T1 construct: Amino acid residues 1-188 of human MDM2 were expressed; made in house; host or cells: Escherichia coli
# T1 sequence (Q00987 1-188): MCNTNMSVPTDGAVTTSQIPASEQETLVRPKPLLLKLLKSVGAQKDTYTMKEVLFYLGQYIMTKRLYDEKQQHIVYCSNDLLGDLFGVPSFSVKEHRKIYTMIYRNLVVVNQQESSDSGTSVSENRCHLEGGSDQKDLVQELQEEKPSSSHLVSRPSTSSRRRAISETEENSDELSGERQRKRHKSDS
# Method: Homogenous Time-Resolved Fluorescence Assay (HTRF1 Assay)
# Residues 1-83 of human p53 were expressed as an amino-terminal AviTag™-TrxA-6xHis fusion protein (biotinylated p53) in E. coli. Each protein was purified from cell paste by affinity chromatography.
# Specifically, 10 uL of GST-hMDM2 was incubated with 10 ul of diluted compound (various concentrations, serially diluted) in 10% DMSO for 20 minutes at room temperature. 20 uL of biotinylated-p53 was added to the GST-hMDM2+ compound mixture, and then incubated at room temperature for 60 min. 10 uL of detection buffer consisting of SA-XLent, anti-GST cryptate antibody and KF was added to GST-hMDM2, biotinylated-p53 and compound reaction and left at room temperature to reach equilibrium for >4 hrs. The final concentration of DMSO in the reaction was 2%. Time-resolved fluorescence readings were measured on a microplate multilabel reader. Percentage of inhibition was calculated relative to nutlin-3.
# [2] = target: T2, human MDM2 (GST-hMDM2 1-188), interaction with biotinylated-p53 (1-83) (Homo sapiens, UniProt Q00987); assay: improved HTRF assay (HTRF2 assay), inhibition of HDM2-p53 interaction; type: binding; settings: 0.2 nM GST-hMDM2, 0.5 nM biotinylated-p53, 100 mM KF
# T2 construct: Amino acid residues 1-188 of human MDM2 were expressed; made in house; host or cells: Escherichia coli
# T2 sequence (Q00987 1-188): as above
# In short: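 GST-hMDM2 preincubated 20 min at RT with serially diluted compound, then biotinylated p53 (1-83, E. coli) added for 60 min. Detection with SA-XLent, anti-GST cryptate and KF, equilibrated >4 h; final DMSO 2%. TR-FRET read; % inhibition calculated relative to nutlin-3.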
structure (smiles),measurement,setting,value
"Cc1cccc([C@H]2OC(CC(=O)O)C(=O)N(CC3CC3)[C@@H]2c2ccc(Cl)cc2)c1 (single isomer, unassigned) [Example 102]",IC50,[1],6500 nM
"O=C(O)C[C@@H]1O[C@H](c2cc(Cl)cc(-c3cn[nH]c3)c2)[C@@H](c2ccc(Cl)cc2)N(CC2CC2)C1=O (single isomer, unassigned) [Example 107]",IC50,[1],3800 nM
"O=C(O)C[C@H]1O[C@H](c2cc(Cl)cc(-c3cn[nH]c3)c2)[C@@H](c2ccc(Cl)cc2)N(CC2CC2)C1=O (single isomer, unassigned) [Example 106]",IC50,[1],5200 nM
"CCCN1C(=O)[C@H](CC(=O)O)O[C@H](c2cccc(Cl)c2)[C@H]1c1ccc(Cl)cc1 [Example 49, 2-((2S,5R,6R)-6-(3-Chlorophenyl)-5-(4-chlorophenyl)-3-oxo-4-propylmorpholin-2-yl)acetic acid]",IC50,[1],600 nM
"O=C(O)CC1O[C@H](c2cccc(Cl)c2)[C@@H](c2ccc(Cl)nc2)N(CC2CC2)C1=O (single isomer, unassigned) [Example 71]",IC50,[1],3100 nM
"O=C(O)C[C@H]1O[C@H](c2cccc(Cl)c2)[C@@H](c2cc3ccccc3[nH]2)N(CC2CC2)C1=O (single isomer, unassigned) [Example 1, 2-((2R,5R,6R)-6-(3-Chlorophenyl)-4-(cyclopropylmethyl)-5-(1H-indol-2-yl)-3-oxomorpholin-2-yl)acetic acid or 2-((2S,5R,6R)-6-(3-Chlorophenyl)-4-(cyclopropylmethyl)-5-(1H-indol-2-yl)-3-oxomorpholin-2-yl)acetic acid]",IC50,[1],33400 nM
"O=C(O)CC1O[C@H](c2cc(F)cc(F)c2)[C@@H](c2ccc(Cl)cc2)N(CC2CC2)C1=O (single isomer, unassigned) [Example 96]",IC50,[1],1100 nM
"CCc1ccc([C@@H]2[C@@H](c3cccc(Cl)c3)O[C@@H](CC(=O)O)C(=O)N2CC2CC2)cc1 [Example 58, 2-((2S,5R,6R)-6-(3-Chlorophenyl)-4-(cyclopropylmethyl)-5-(4-ethylphenyl)-3-oxomorpholin-2-yl)acetic acid]",IC50,[1],900 nM
"C[C@H](C1CCC1)N1C(=O)[C@H](CC(=O)O)O[C@H](c2cccc(Cl)c2)[C@H]1c1ccc(Cl)cc1 [Example 21, 2-((2S,5R,6R)-6-(3-Chlorophenyl)-5-(4-chlorophenyl)-4-((R)-1-cyclobutylethyl)-3-oxomorpholin-2-yl)acetic acid]",IC50,[1],300 nM
"O=C(O)C[C@@H]1O[C@H](c2cccc(Cl)c2)[C@@H](c2ccc(OC(F)(F)F)cc2)N(CC2CC2)C1=O [Example 59, 2-((2S,5R,6R)-6-(3-Chlorophenyl)-4-(cyclopropylmethyl)-3-oxo-5-(4-(trifluoromethoxy)phenyl)morpholin-2-yl)acetic acid]",IC50,[1],700 nM
"O=C(O)C[C@H]1O[C@H](c2cccc(Cl)c2)[C@@H](c2ccc(F)cc2)N(CC2CC2)C1=O [Example 64, 2-((2R,5R,6R)-6-(3-Chlorophenyl)-4-(cyclopropylmethyl)-5-(4-fluorophenyl)-3-oxomorpholin-2-yl)acetic acid]",IC50,[1],1500 nM
"O=C(O)CC1O[C@H](c2cc(F)cc(F)c2)[C@@H](c2ccc(Cl)cc2)N(CC2CC2)C1=O (single isomer, unassigned) [Example 97]",IC50,[1],500 nM
"O=C(O)CC1O[C@H](c2cccc(Cl)c2)[C@@H](c2ccc(Br)cc2)N(CC2CC2)C1=O (single isomer, unassigned) [Example 68]",IC50,[1],14200 nM
"Cn1c([C@@H]2[C@@H](c3cccc(Cl)c3)O[C@@H](CC(=O)O)C(=O)N2CC2CC2)nc2ccccc21 (racemic) [Example 5, 2-((2S,5R,6R)-6-(3-Chlorophenyl)-4-(cyclopropylmethyl)-5-(1-methyl-1H-benzo[d]imidazol-2-yl)-3-oxomorpholin-2-yl)acetic acid and 2-((2R,5S,6S)-6-(3-Chlorophenyl)-4-(cyclopropylmethyl)-5-(1-methyl-1H-benzo[d]imidazol-2-yl)-3-oxomorpholin-2-yl)acetic acid]",IC50,[1],39500 nM
"C[C@H](c1ccccc1)N1C(=O)[C@H](CC(=O)O)O[C@H](c2cccc(Cl)c2)[C@H]1c1ccc(Cl)cc1 [Example 25, 2-((2S,5R,6R)-6-(3-Chlorophenyl)-5-(4-chlorophenyl)-3-oxo-4-((R)-1-phenylethyl)morpholin-2-yl)acetic acid]",IC50,[1],600 nM
"O=C(O)CC1O[C@H](c2cccc(Cl)c2)[C@@H](c2ccc(Cl)cc2Br)N(CC2CC2)C1=O (single isomer, unassigned) [Example 79]",IC50,[1],70200 nM
"C[C@@H](c1ccccc1)N1C(=O)[C@@H](CC(=O)O)O[C@H](c2cccc(Cl)c2)[C@H]1c1ccc(Cl)cc1 [Example 26, 2-((2R,5R,6R)-6-(3-Chlorophenyl)-5-(4-chlorophenyl)-3-oxo-4-((S)-1-phenylethyl)morpholin-2-yl)acetic acid]",IC50,[1],1500 nM
"CC[C@H](C(=O)OC(C)(C)C)N1C(=O)[C@@H](CC(=O)O)O[C@H](c2cccc(Cl)c2)[C@H]1c1ccc(Cl)cc1 (single isomer, unassigned) [Example 33]",IC50,[1],1100 nM
"N#Cc1cc(F)cc([C@H]2OC(CC(=O)O)C(=O)N(CC3CC3)[C@@H]2c2ccc(Cl)cc2)c1 (single isomer, unassigned) [Example 99]",IC50,[1],1100 nM
"O=C(O)C[C@@H]1O[C@H](c2cccc(Cl)c2)[C@@H](c2ccc(Cl)cc2)N(Cc2ncco2)C1=O [Example 43, 2-((2S,5R,6R)-6-(3-Chlorophenyl)-5-(4-chlorophenyl)-4-(oxazol-2-ylmethyl)-3-oxomorpholin-2-yl)acetic acid]",IC50,[1],1100 nM
"CN(C)C(=O)C[C@H]1O[C@H](c2cccc(Cl)c2)[C@@H](c2ccc(Cl)cc2)N([C@H](CN(c2ccccc2F)S(=O)(=O)C2CC2)C2CC2)C1=O (single isomer, unassigned) [Example 366, 2-((2R,5R,6R)-6-(3-Chlorophenyl)-5-(4-chlorophenyl)-4-((S)-1-cyclopropyl-2-(N-(2-fluorophenyl)cyclopropanesulfonamido)ethyl)-3-oxomorpholin-2-yl)-N,N-dimethylacetamide or 2-((2S,5R,6R)-6-(3-chlorophenyl)-5-(4-chlorophenyl)-4-((S)-1-cyclopropyl-2-(N-(2-fluorophenyl)cyclopropanesulfonamido)ethyl)-3-oxomorpholin-2-yl)-N,N-dimethylacetamide]",IC50,[2],< 1 nM
"CC[C@@H](CS(=O)(=O)C1CC1)N1C(=O)[C@@H](CC(=O)O)O[C@H](c2cccc(Cl)c2)[C@H]1c1ccc(Cl)cc1 (single isomer, unassigned) [Example 212, 2-((2R,5R,6R)-6-(3-chlorophenyl)-5-(4-chlorophenyl)-4-((S)-1-(cyclopropylsulfonyl)butan-2-yl)-3-oxomorpholin-2-yl)acetic acid or 2-((2S,5R,6R)-6-(3-chlorophenyl)-5-(4-chlorophenyl)-4-((S)-1-(cyclopropylsulfonyl)butan-2-yl)-3-oxomorpholin-2-yl)acetic acid]",IC50,[2],2 nM
"CC(C)[C@@H](CN(c1ccccc1F)S(=O)(=O)C(C)C)N1C(=O)[C@@H](CC(=O)O)O[C@H](c2cccc(Cl)c2)[C@H]1c1ccc(Cl)cc1 (single isomer, unassigned) [Example 198, 2-((2R,5R,6R)-6-(3-chlorophenyl)-5-(4-chlorophenyl)-4-((S)-1-(N-(2-fluorophenyl)propan-2-ylsulfonamido)-3-methylbutan-2-yl)-3-oxomorpholin-2-yl)acetic acid or 2-((2S,5R,6R)-6-(3-chlorophenyl)-5-(4-chlorophenyl)-4-((S)-1-(N-(2-fluorophenyl)propan-2-ylsulfonamido)-3-methylbutan-2-yl)-3-oxomorpholin-2-yl)acetic acid]",IC50,[2],1 nM
"CC[C@@H](CN(c1ccccc1F)S(=O)(=O)C1CC1)N1C(=O)[C@@H](CC(=O)O)O[C@H](c2cccc(Cl)c2)[C@H]1c1ccc(Cl)s1 (single isomer, unassigned) [Example 216, 2-((2R,5S,6R)-6-(3-chlorophenyl)-5-(5-chlorothiophen-2-yl)-4-((S)-1-(N-(2-fluorophenyl)cyclopropanesulfonamido)butan-2-yl)-3-oxomorpholin-2-yl)acetic acid or 2-((2S,5S,6R)-6-(3-chlorophenyl)-5-(5-chlorothiophen-2-yl)-4-((S)-1-(N-(2-fluorophenyl)cyclopropanesulfonamido)butan-2-yl)-3-oxomorpholin-2-yl)acetic acid]",IC50,[2],< 1 nM
"CC[C@@H](CS(=O)(=O)C(C)(C)C)N1C(=O)[C@@H](CC(=O)O)O[C@H](c2cccc(Cl)c2)[C@H]1c1ccc(Cl)cc1F (single isomer, unassigned) [Example 317, 2-((2R,5R,6R)-4-((S)-1-(tert-Butylsulfonyl)butan-2-yl)-5-(4-chloro-2-fluorophenyl)-6-(3-chlorophenyl)-3-oxomorpholin-2-yl)acetic acid or 2-((2S,5R,6R)-4-((S)-1-(tert-butylsulfonyl)butan-2-yl)-5-(4-chloro-2-fluorophenyl)-6-(3-chlorophenyl)-3-oxomorpholin-2-yl)acetic acid]",IC50,[2],3 nM
